{
  "source": "patent US7625887B2",
  "about": "“Receptor agonists” (Takeda Pharmaceutical Company Limited, priority 2003, dated 2009)",
  "key": {"NCI-H716 cells": {"system": "NCI-H716 cells", "assay": "GLP-1 secretion from NCI-H716 cell line", "assay_type": "cell-based, human", "conditions": "bile acid 25 μM, 2 hrs; secretion amount in Base was 100%", "description": "NCI-H716 cells secrete Glucagon-like peptide-1 (GLP-1). GLP-1 is a peptide useful for controlling blood glucose level because it acts on the pancreas to cause secretion of insulin and the like. In the same manner as in Experimental Example 9, NCI-H716 (ATCC) was seeded in a 96 well plate and, after incubation for 2 days, used for the following secretion test. As a buffer for secretion test, modified Krebs-Ringer bicarbonate buffer (KRBH, 116 mM NaCl, 4.7 mM KCl, 1.2 mM KH2PO4, 1.2 mM MgSO4, 2.5 mM CaCl2, 25 mM NaHCO3, 24 mM HEPES, pH 7.3) supplemented with glucose 5.5 mM and BSA 0.1% was used. The cells were washed once with the buffer for secretion test, preincubated at 37° C. under 5% CO2, bile acid diluted with the buffer for secretion test was added and the cells were cultured at 37° C. under 5% CO2 for 2 hrs. The cell culture supernatant was collected, cryopreserved and the GLP-1 content in the supernatant was measured using a GLP-1 measurement EIA kit (Linco) The results are shown in Table 9. In the Table, Base means non-addition of a test compound."}, "[1]": {"system": "guinea pig intestine primary culture cells", "assay": "GLP-1 secretion from guinea pig intestine primary culture cells", "assay_type": "cell-based", "conditions": "bile acid 50 μM, 90 min", "description": "Colon mucous membrane of guinea pig (Hartley, male, Charles River Japan, Inc.) was removed and subjected to an enzyme treatment to give a cell dispersion according to the following method.\nThe enzyme solution used was obtained by dissolving 5 mg/ml Collagenase (Sigma), 5 mg/ml Hyaluronidase (Sigma) and 0.5 mg/ml DNaseI (Sigma) in a medium. The medium used was Dulbecco's Modified Eagle Medium (DMEM, Invitrogen) supplemented with 4.5 g/l Glucose, 5% FBS (Invitrogen), 100 units/ml Penicillin (Invitrogen), 100 μg/ml Streptomycin (Invitrogen), 50 μg/ml Gentamicin (Invitrogen) and 20 mM Hepes (pH 7.3). After digestion by the enzyme solution at 37° C., the tissue sections were prepared into dispersed cells by passing through a pipette 4 times and the cells were collected. The collected cells were washed with a buffer (incubation buffer) obtained by adding 5.5 mM Glucose and 0.1% BSA to a modified Krebs-Ringer bicarbonate buffer (KRBH, 116 mM NaCl, 4.7 mM KCl, 1.2 mM KH2PO4, 1.2 MM MgSO4, 2.5 mM CaCl2, 25 mM NaHCO3, 24 mM HEPES, pH 7.3), and preincubated at 37° C. under 5% CO2 for 30 min. 0.1 μM Phorbol ester (Wako), 1% DPPIV inhibitor (Linco) and a test compound were added to the above-mentioned incubation buffer, and the obtained buffer was added to the cells after the aforementioned preincubation and incubated for 90 min. The culture supernatant was collected and cryopreserved. The concentration of GLP-1 released in the culture supernatant was measured using an ELISA kit (Linco)."}},
  "data": [
    {"compound": "C[C@H](CCC(=O)NCCS(=O)(=O)O)[C@H]1CC[C@H]2[C@@H]3CC[C@@H]4C[C@H](O)CC[C@]4(C)[C@H]3CC[C@]12C", "note": "[TLCA, taurolithocholic acid, reference compound]", "values": [
      {"measurement": "GLP-1 secretion increase (%)", "setting": "NCI-H716 cells", "value": 124, "unit": "%"},
      {"measurement": "GLP-1 (% relative to non-addition)", "setting": "[1]", "value": "400 % relative to non-addition"}
    ]}
  ]
}
